Laboratory results published in patent US20120288442A1, “Nuclear Imaging Method Using Molecular Target Detection Agent for Liver Fibrosis” (ATOMIC ENERGY COUNCIL-INSTITUTE OF NUCLEAR ENERGY RESEARCH, priority 2011, published 2012).

Target: T1, CB1 receptor of liver fibrosis cell (Mus musculus, UniProt P47746)
T1 construct: from tissue; host or cells: liver of living mice (one fibrotic, one normal), in vivo imaging
Test: fluorescence imaging of a mouse having liver fibrosis and a normal mouse with Tocrifluor
Format: in vivo
Conditions: for a 543 nm light; FIG. 3B and FIG. 3C

T1 sequence (P47746 whole entry): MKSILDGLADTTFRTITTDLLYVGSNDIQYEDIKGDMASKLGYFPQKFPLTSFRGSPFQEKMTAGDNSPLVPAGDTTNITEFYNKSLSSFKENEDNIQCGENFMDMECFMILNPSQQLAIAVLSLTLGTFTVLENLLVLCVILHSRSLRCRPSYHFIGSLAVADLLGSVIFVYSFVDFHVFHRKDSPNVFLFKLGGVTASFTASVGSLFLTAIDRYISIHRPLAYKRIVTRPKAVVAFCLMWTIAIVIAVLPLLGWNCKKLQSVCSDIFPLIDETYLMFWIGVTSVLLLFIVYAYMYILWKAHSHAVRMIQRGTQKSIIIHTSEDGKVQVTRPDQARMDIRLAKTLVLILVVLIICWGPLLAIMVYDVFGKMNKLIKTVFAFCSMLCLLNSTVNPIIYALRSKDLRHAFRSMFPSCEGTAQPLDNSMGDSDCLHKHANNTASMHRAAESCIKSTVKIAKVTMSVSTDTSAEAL

With “N-(Piperidin-1-yl)-5-(4-(4-(3-(5-carboxamidotetramethyl rhodaminyl)propyl))phenyl)-1-(2,4-dichlorophenyl)-4-methyl-1H-pyrazole-3-carboxamide [Tocrifluor]” the “fluorescence found at wavelength” value was 590 nm.
